Here are results for eight molecules from PMC6151560, “Antibacterial and Antitubercular Activities of Cinnamylideneacetophenones” (Molecules : A Journal of Synthetic Chemistry and Natural …, 2017).

Converted amounts (≈) assume the structure as drawn. Where two headings read alike, the source gives them in different places.

In series [1] the test system is Mycobacterium tuberculosis H37Rv (ATCC 27294). As to the kind of experiment: Antitubercular REMA (Resazurin Microtiter Assay). The class given is cell-based. To be noted: Mycobacterium tuberculosis, 168 h, read-out: Mt MIC. For orientation: The colour change of resazurin is a common sign of viable cells or microbes.
Series [2] has as its system E. coli. The arrangement: method as in PMID 17662960. The following applies: cited from earlier work.
For series [3], the system named is S. aureus strains. The arrangement: method as in PMID 28066373. The following applies: cited from earlier work.
For series [4], the system named is M. tuberculosis. The arrangement: method as in PMID 26400221. The following applies: cited from earlier work.
In series [5] the test system is Escherichia coli (ATCC 10536). As to the kind of experiment: Antibacterial broth microdilution (MIC), E. coli. To be noted: for MIC: ATCC10536, 24 h, read-out: Ec MIC. For orientation: Broth dilution looks for growth in wells or tubes with falling amounts of substance.
Series [6] deals with Staphylococcus aureus (ATCC 14458). The experiment in a line: Antibacterial broth microdilution (MIC/MBC), S. aureus. The following applies: for MIC: ATCC14458, 24 h.
For series [7], the system named is Streptococcus mutans (ATCC 25175). The experiment in a line: Antibacterial broth microdilution (MIC/MBC), S. mutans. To be noted: for MIC: ATCC25175, 24 h; for MBC: ATCC25175, read-out: Sm MBC.
For series [8], the system named is Pseudomonas aeruginosa (ATCC 15442). As to the kind of experiment: Antibacterial broth microdilution (MIC), P. aeruginosa. To be noted: for MIC: ATCC15442, 24 h, read-out: Pa MIC.
The test system of series [9] is Streptococcus sanguinis (ATCC 10557). The experiment in a line: Antibacterial broth microdilution (MIC/MBC), S. sanguinis. The following applies: for MIC: ATCC10557, 24 h; for MBC: ATCC10557, read-out: Ss MBC.
Series [10] deals with A549 (human lung adenocarcinoma epithelial cell line, ATCC CCL-185). As to the kind of experiment: Cytotoxicity on lung cells (resazurin), A549. The class given is cell-based. To be noted: 24 h incubation.
Series [11] in a line: DPPH radical scavenging ability. The following applies: at 1600, 800, 400, and 200 µM; DPPH 100 μM, 30 min, 25 °C. An excerpt: The low selectivity of the cinnamylideneacetophenones 3 and 4 can be correlated with their phenolic nature. Studies report the ability of phenolic compounds to act on widespread radical processes shared by eukaryotic and prokaryotic cells. We hypothesized this behavior may be responsible by simultaneous activity toward bacteria and pulmonary cells. Therefore, we evaluated the radical scavenging ability of 3 and 4 using DPPH (2,2-diphenyl-1-picrylhydrazyl) protocol. […] Altogether, low selectivity of 3 and 4 cannot be strongly related to radical processes. Quercetin and gallic acid were used as positive controls due to their phenolic nature and potent radical scavenging ability.
Radical scavenging activity of compounds 3 and 4 was determined using 2,2-diphenyl-1-picrylhydrazyl (DPPH). Aliquots of 10 µL of 3, 4, and positive controls (quercetin and gallic acid) at concentrations 1600, 800, 400, and 200 μM (in EtOH) were individually added in 190 µL DPPH (100 μM). The mixtures were incubated in the dark at 25 °C for 30 min. Remaining DPPH was determined spectroscopically at 490 nm by blanking against absolute ethanol. Radical scavenging ability was expressed by using mean values obtained from triplicates as the percentage of radicals reduced by calculating the following equation: DPPH scavenging % = [1 − (Asample/A) × 100], where A is test absorbance without sample (only EtOH and DPPH) and Asample is test absorbance with compounds.

Series [12] can be described thus: Cytotoxicity on lung cells (resazurin), MRC-5. The following applies: human, MRC-5 cells (lung fibroblast cell line, ATCC CCL-171).
Series [13] relates to MRC-5 (human lung fibroblast cell line, ATCC CCL-171). The experiment in a line: Cytotoxicity on lung cells (resazurin), MRC-5. To be noted: Homo sapiens, MRC5, read-out: IC50 on pulmonary cells.
Series [14] in a line: Partition coefficient log Po/w by HPLC-PDA (OECD method). The following applies: n-octanol/water (from HPLC retention on a C-18 column).
Series [15] is described as follows: physchem.
The nature of series [16]: in vitro. To be noted: human.
[17] abbreviates: broth microdilution, 24 h, tested 3.9 to 500 µM.
[18] abbreviates: ATCC14458, read-out: MIC and MBC values.

As for `O=C/C=C/c1ccccc1` [Compound 1, Cinnamaldehyde, reference compound], the MIC (commonly the least concentration at which growth counts as inhibited) in series [1] is more than 200 µM; in series [5], more than 500 µM; in series [6] (read-out: Sa MIC), more than 500 µM; in series [7] (read-out: Sm MIC), more than 500 µM; in [8], more than 500 µM; in series [9] (read-out: Ss MIC) it was more than 500 µM. For the same molecule, the “MIC against E. coli” value was 1000 µg/mL in [2] and 7566 µM in series [2] (converted value in brackets). In addition, the “MIC against S. aureus strains” value in [3] is 250 µg/mL; in series [3] (converted value in brackets), 1891 µM. Moreover, the “MIC against M. tuberculosis” value in series [4] is given as 3.12 µg/mL; in series [4] (converted value in brackets), 23 µM. Further, the “Ec MIC” value in [5] (broth microdilution, 24 h) is on record as more than 500 µM. Moreover, the “Sa MIC” value in series [6] (setting [17]) was more than 500 µM. Also, the “Sm MIC” value in series [7] (setting [17]) is on record as more than 500 µM. Further, in series [8] (broth microdilution, 24 h), the “Pa MIC” value is recorded as more than 500 µM. Further, the “Ss MIC” value in [9] (setting [17]) is more than 500 µM.
For `O=C(/C=C/C=C/c1ccccc1)c1cccc(O)c1` [Compound 3, (2E,4E)-1-(3-hydroxyphenyl)-5-phenylpenta-2,4-dien-1-one], the MIC was 88.8 µM (≈ 22.2 µg/mL) in series [1] (M. tuberculosis H37Rv, REMA, 7 days, lowest concentration giving 90% inhibition of growth); more than 500 µM in series [5]; 77.9 µM (≈ 19.5 µg/mL) in series [6] (read-out: Sa MIC, Staphylococcus aureus, broth microdilution, 24 h, tested 3.9 to 500 µM); 77.9 µM (≈ 19.5 µg/mL) in series [7] (read-out: Sm MIC, Streptococcus mutans, broth microdilution, 24 h, tested 3.9 to 500 µM); more than 500 µM in series [8]; 77.9 µM (≈ 19.5 µg/mL) in series [9] (read-out: Ss MIC, Streptococcus sanguinis, broth microdilution, 24 h, tested 3.9 to 500 µM). Further, the IC50 – broadly, the midpoint of a concentration-inhibition curve – is 96.7 µM in [10] and 46.3 to 96.7 µM in series [13]. The “percentages of DPPH scavenging ability” value in [11] is listed as “below 8%”. For the same molecule, the IC50 at 24 h in [12] was 46.3 µM. Besides, the minimum bactericidal concentration (MBC) (in general, the smallest concentration meeting the test's criterion for killing) in [6] (setting [18]) is 77.9 to 312 µM (≈ 19.5 to 78.1 µg/mL); in [6] (ATCC14458, read-out: Sa MBC), 156 µM (≈ 39 µg/mL); in series [7], 156 µM (≈ 39 µg/mL); in series [9], 156 µM (≈ 39 µg/mL). Also, the chromatographic logP (in general, a lipophilicity value derived from retention on a column) in [14] amounted to 2.7.
Take `O=C(/C=C/C=C/c1ccccc1)c1ccc(O)cc1` [Compound 4, (2E,4E)-1-(4-hydroxyphenyl)-5-phenylpenta-2,4-dien-1-one]: the MIC in series [1] is 81.9 µM (≈ 20.5 µg/mL); in series [5], more than 500 µM; in series [6] (read-out: Sa MIC), 77.9 µM (≈ 19.5 µg/mL); in series [7] (read-out: Sm MIC) it was 156 µM (≈ 39 µg/mL); in [8], more than 500 µM; in series [9] (read-out: Ss MIC) it was 156 µM (≈ 39 µg/mL). Further, the IC50 was 77.5 µM in series [10], 53.1 µM in series [16] and 46.3 to 96.7 µM in series [13]. Also, the “percentages of DPPH scavenging ability” value in [11] was “below 8%”. In addition, in series [15], the chromatographic logP was 2.6. Besides, the minimum bactericidal concentration (MBC) in series [6] (setting [18]) is 77.9 to 312 µM (≈ 19.5 to 78.1 µg/mL); in series [6] (ATCC14458, read-out: Sa MBC), 77.9 µM (≈ 19.5 µg/mL); in [7], 312 µM (≈ 78.1 µg/mL); in [9] it was 312 µM (≈ 78.1 µg/mL).
For the molecule `O=C(/C=C/C=C/c1ccccc1)c1ccc(Cl)cc1` [Compound 11, (2E,4E)-1-(4-chlorophenyl)-5-phenylpenta-2,4-dien-1-one], the MIC is more than 200 µM in series [1]; more than 500 µM in series [5]; more than 500 µM in [6] (read-out: Sa MIC); more than 500 µM in [7] (read-out: Sm MIC); more than 500 µM in [8]; more than 500 µM in series [9] (read-out: Ss MIC). Moreover, in [15], the chromatographic logP was 3.7.
For `O=C(/C=C/C=C/c1ccccc1)c1ccc(Br)cc1` [Compound 12, (2E,4E)-1-(4-bromophenyl)-5-phenylpenta-2,4-dien-1-one], the MIC is more than 200 µM in [1]; more than 500 µM in series [5]; more than 500 µM in series [6] (read-out: Sa MIC); more than 500 µM in series [7] (read-out: Sm MIC); more than 500 µM in series [8]; more than 500 µM in series [9] (read-out: Ss MIC). In addition, in series [15], the chromatographic logP was 3.8.
Consider `O=c1c(O)c(-c2ccc(O)c(O)c2)oc2cc(O)cc(O)c12` [Quercetin, reference compound], for which, in [11], the “percentages of DPPH scavenging ability” value is not below 95%.
Regarding `COc1cccc2c1C(=O)c1c(O)c3c(c(O)c1C2=O)C[C@@](O)(C(=O)CO)C[C@@H]3O[C@H]1C[C@H](N)[C@H](O)[C@H](C)O1` [doxorubicin, reference compound], the IC50 in series [10] worked out at 1.8 µM. This molecule also yielded an IC50 at 24 h in [12] of 0.7 µM.
With `O=C(O)c1cc(O)c(O)c(O)c1` [gallic acid, reference compound], the “percentages of DPPH scavenging ability” value in series [11] is on record as not below 95%.
